These results are taken from ChEMBL document CHEMBL3351560, “Pyrazolone-quinazolone hybrids: a novel class of human 4-hydroxyphenylpyruvate dioxygenase inhibitors” (Bioorg Med Chem, 2014).

Structures are written as SMILES.

Test [1] deals with T1, 4-hydroxyphenylpyruvate dioxygenase (Homo sapiens, UniProt P32754). The test can be described thus: Inhibition of purified His6-tagged recombinant human HPPD assessed as inhibition of maleylacetoacetate formation after 30 mins by UV/visible spectrophotometry.
Target sequence in this assay (P32754 whole entry): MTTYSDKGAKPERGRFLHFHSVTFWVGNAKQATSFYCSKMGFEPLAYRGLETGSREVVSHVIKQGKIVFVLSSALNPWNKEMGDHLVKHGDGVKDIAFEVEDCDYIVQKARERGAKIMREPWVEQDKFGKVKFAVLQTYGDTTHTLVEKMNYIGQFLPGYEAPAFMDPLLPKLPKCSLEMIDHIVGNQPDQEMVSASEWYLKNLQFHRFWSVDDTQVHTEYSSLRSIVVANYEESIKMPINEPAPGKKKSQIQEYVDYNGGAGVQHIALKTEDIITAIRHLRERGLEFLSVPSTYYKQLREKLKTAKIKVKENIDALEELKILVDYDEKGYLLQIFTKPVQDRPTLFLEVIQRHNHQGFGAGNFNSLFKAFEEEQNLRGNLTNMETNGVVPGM
Test [2] has as its target T1, 4-hydroxyphenylpyruvate dioxygenase. The test can be described thus: Ratio of Nitisinone Ki to compound Ki for purified His6-tagged recombinant human HPPD assessed as inhibition of maleylacetoacetate formation after 30 mins by UV/visible spectrophotometry.
Target sequence in this assay (P32754 2-393 limits assumed): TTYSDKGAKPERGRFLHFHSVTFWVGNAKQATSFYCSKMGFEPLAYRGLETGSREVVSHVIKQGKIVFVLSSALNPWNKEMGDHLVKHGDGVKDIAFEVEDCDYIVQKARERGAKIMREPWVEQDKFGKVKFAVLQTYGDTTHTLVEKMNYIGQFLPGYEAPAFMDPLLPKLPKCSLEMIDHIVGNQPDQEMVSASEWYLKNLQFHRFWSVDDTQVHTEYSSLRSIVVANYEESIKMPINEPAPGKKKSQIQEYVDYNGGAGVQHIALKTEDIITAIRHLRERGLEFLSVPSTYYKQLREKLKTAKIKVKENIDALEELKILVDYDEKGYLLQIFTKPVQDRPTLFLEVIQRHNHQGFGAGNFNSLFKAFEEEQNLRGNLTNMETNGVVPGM

With `Cc1ccccc1-n1c(C)nc2ccc(C(=O)c3cnn(C)c3O)cc2c1=O`, in test [1], the Ki stood at 58 nM.

Regarding `Cc1nn(C)c(O)c1C(=O)c1ccc2nc(C)n(-c3cccc(Br)c3)c(=O)c2c1`, the Ki in test [1] worked out at 93 nM.

Regarding `Cc1nc2ccc(C(=O)c3cnn(C)c3O)cc2c(=O)n1-c1ccc(Cl)cc1`, the Ki in test [1] was 22 nM.

On to `Cc1nc2ccc(C(=O)c3cnn(C)c3O)cc2c(=O)n1-c1cccc(Cl)c1`, for which the Ki in test [1] was 10 nM. For the same compound, the Ratio Ki in test [2] came to 3.

With `Cc1nc2ccc(C(=O)c3cnn(C)c3O)cc2c(=O)n1-c1cccc(OC(F)(F)F)c1`, the Ki in test [1] amounted to 31 nM.

As to `Cc1nc2ccc(C(=O)c3cnn(C)c3O)cc2c(=O)n1-c1ccc(Cl)c(Cl)c1`, the Ki in test [1] was 25 nM.

For the compound `Cc1ccc(-n2c(C)nc3ccc(C(=O)c4c(C)nn(C)c4O)cc3c2=O)c(F)c1`, the Ki in test [1] came out at 81 nM.

`Cc1nc2ccc(C(=O)c3cnn(C)c3O)cc2c(=O)n1-c1ccc(OC(F)(F)F)cc1`: the Ki in test [1] amounted to 160 nM.

As to `Cc1cccc(-n2c(C)nc3ccc(C(=O)c4cnn(C)c4O)cc3c2=O)c1`, the Ki in test [1] came to 13 nM.

In the case of `COc1ccccc1-n1c(C)nc2ccc(C(=O)c3c(C)nn(C)c3O)cc2c1=O`, the Ki in test [1] was determined as 207 nM.

On to `COc1ccccc1-n1c(C)nc2ccc(C(=O)c3cnn(C)c3O)cc2c1=O`, for which, in test [1], the Ki amounted to 38 nM.

For the compound `Cc1nn(C)c(O)c1C(=O)c1ccc2nc(C)n(-c3cccc(F)c3)c(=O)c2c1`, the Ki in test [1] was 90 nM.

Turning to `Cc1cccc(-n2c(C)nc3ccc(C(=O)c4c(C)nn(C)c4O)cc3c2=O)c1`, in test [1], the Ki amounted to 74 nM.

Take `COc1cccc(-n2c(C)nc3ccc(C(=O)c4cnn(C)c4O)cc3c2=O)c1`: the Ki in test [1] is 34 nM.

For `Cc1cc(F)ccc1-n1c(C)nc2ccc(C(=O)c3c(C)nn(C)c3O)cc2c1=O`, the Ki in test [1] is 219 nM.

As to `Cc1nc2ccc(C(=O)c3cnn(C)c3O)cc2c(=O)n1-c1ccccc1`, the Ki in test [1] amounted to 19 nM.

Consider `Cc1ccc(-n2c(C)nc3ccc(C(=O)c4cnn(C)c4O)cc3c2=O)c(Br)c1`, for which the Ki in test [1] amounted to 11 nM. Besides, the Ratio Ki in test [2] was 3.

As for `Cc1nn(C)c(O)c1C(=O)c1ccc2nc(C)n(-c3cccc(Cl)c3)c(=O)c2c1`, in test [1], the Ki turned out to be 173 nM.

Take `Cc1ccc(-n2c(C)nc3ccc(C(=O)c4cnn(C)c4O)cc3c2=O)c(C)c1`: the Ki in test [1] was found to be 59 nM.

As for `Cc1nn(C)c(O)c1C(=O)c1ccc2nc(C)n(-c3ccccc3Cl)c(=O)c2c1`, the Ki in test [1] stood at 86 nM.

As to `Cc1ccc(-n2c(C)nc3ccc(C(=O)c4cnn(C)c4O)cc3c2=O)cc1`, in test [1], the Ki amounted to 25 nM.

Take `Cc1nc2ccc(C(=O)c3cnn(C)c3O)cc2c(=O)n1-c1ccccc1Br`: in test [1], the Ki came out at 24 nM.

For the compound `COc1ccc(-n2c(C)nc3ccc(C(=O)c4cnn(C)c4O)cc3c2=O)cc1`, the Ki in test [1] stood at 60 nM.

As for `Cc1ccc(-n2c(C)nc3ccc(C(=O)c4c(C)nn(C)c4O)cc3c2=O)c(Br)c1`, in test [1], the Ki is 87 nM.

As to `Cc1cc(F)ccc1-n1c(C)nc2ccc(C(=O)c3cnn(C)c3O)cc2c1=O`, in test [1], the Ki was 40 nM.

Take `Cc1nc2ccc(C(=O)c3cnn(C)c3O)cc2c(=O)n1-c1cccc(F)c1`: in test [1], the Ki came out at 20 nM.

Take `Cc1nc2ccc(C(=O)c3cnn(C)c3O)cc2c(=O)n1-c1cccc(Br)c1`: the Ki in test [1] amounted to 14 nM.

Take `Cc1cc(Cl)ccc1-n1c(C)nc2ccc(C(=O)c3c(C)nn(C)c3O)cc2c1=O`: the Ki in test [1] is 177 nM.

Regarding `Cc1ccc(-n2c(C)nc3ccc(C(=O)c4cnn(C)c4O)cc3c2=O)c(F)c1`, the Ki in test [1] amounted to 170 nM.

For `COc1ccc(-n2c(C)nc3ccc(C(=O)c4c(C)nn(C)c4O)cc3c2=O)cc1`, the Ki in test [1] turned out to be 238 nM.

`Cc1ccc(-n2c(C)nc3ccc(C(=O)c4c(C)nn(C)c4O)cc3c2=O)cc1`: the Ki in test [1] was 156 nM.

As to `Cc1ccc(-n2c(C)nc3ccc(C(=O)c4c(C)nn(C)c4O)cc3c2=O)c(Cl)c1`, the Ki in test [1] was determined as 109 nM.

In the case of `Cc1nc2ccc(C(=O)c3cnn(C)c3O)cc2c(=O)n1-c1ccccc1Cl`, in test [1], the Ki worked out at 22 nM.

In the case of `Cc1nn(C)c(O)c1C(=O)c1ccc2nc(C)n(-c3ccc(Br)cc3)c(=O)c2c1`, the Ki in test [1] turned out to be 130 nM.

Turning to `Cc1nc2ccc(C(=O)c3cnn(C)c3O)cc2c(=O)n1-c1ccc(F)cc1`, in test [1], the Ki worked out at 34 nM.

As for `Cc1cc(Cl)ccc1-n1c(C)nc2ccc(C(=O)c3cnn(C)c3O)cc2c1=O`, the Ki in test [1] is 32 nM.

In the case of `Cc1ccc(-n2c(C)nc3ccc(C(=O)c4cnn(C)c4O)cc3c2=O)c(Cl)c1`, in test [1], the Ki worked out at 90 nM.

For `Cc1nn(C)c(O)c1C(=O)c1ccc2nc(C)n(-c3ccc(F)cc3)c(=O)c2c1`, the Ki in test [1] is 247 nM.

As to `Cc1ccccc1-n1c(C)nc2ccc(C(=O)c3c(C)nn(C)c3O)cc2c1=O`, the Ki in test [1] is 248 nM.

For the compound `Cc1ccc(-n2c(C)nc3ccc(C(=O)c4c(C)nn(C)c4O)cc3c2=O)c(C)c1`, the Ki in test [1] is 161 nM.

In the case of `Cc1nc2ccc(C(=O)c3cnn(C)c3O)cc2c(=O)n1-c1ccc(Br)cc1`, in test [1], the Ki was found to be 18 nM.

In the case of `Cc1nc2ccc(C(=O)c3cnn(C)c3O)cc2c(=O)n1-c1ccccc1F`, the Ki in test [1] was found to be 15 nM.

Turning to `Cc1nn(C)c(O)c1C(=O)c1ccc2nc(C)n(-c3ccccc3F)c(=O)c2c1`, the Ki in test [1] was found to be 79 nM.

In the case of `Cc1nn(C)c(O)c1C(=O)c1ccc2nc(C)n(-c3ccc(Cl)cc3)c(=O)c2c1`, the Ki in test [1] was 237 nM.
